Reference: patent US7504380B2, “Antimicrobial peptide isolated from halocynthia aurantium” (Industry-Academic Cooperation Foundation, Hoseo University, priority 2002, dated 2009)

Columns and labels:
[1] = test system: multi drug resistance Pseudomonas aeruginosa (MDRPA); assay: ultra-sensitive radial diffusion assay, MDRPA; assay type: cell-based; details: according to the concentration of the peptides; FIG. 9B, 9D
Protocol: (§1) In order to measure the antimicrobial activity of acid extracts of Halocynthia aurantium obtained in the above Example <1-1>, the present inventors performed ultrasensitive radial diffusion assay. Particularly, analyzed 150 fractions eluted in the above Example <1-1> 5 times each. Took 100 μl from 2 ml of each fraction and concentrated thereof with a vacuum centrifugation (Centra Evaporator, Bioneer, Korea), which was suspended in 5 μl of 0.01% acetic acid solution. Meanwhile, prepared agarose plate including wells 3 mm in diameter by adding methicillin resistance Staphylococcus aureus (referred as “MRSA” hereinafter, Seoul Women's University, Korea CCARM3001) of mid-logarithmic phase to gel comprising sterilized citrate phosphate buffer (9 mM sodium phosphate, 1 mM sodium citrate, pH 7.4), 1% (w/v) type 1 agarose (low electroendosmosis agarose) (A 6013, Sigma) and 3% tryptic soy broth (TSB, Difco, Detroit, Mich., USA). Loaded the above fractions onto the wells of agarose plate containing the above bacteria. Reacted thereof for 3 hours to make the peptides spread into the agarose gel. Added 10 ml of overnutrition medium comprising 6% TSB and 1% agarose gel thereto. Cultured the above plate for overnight until the colonies of the above bacteria were formed. Confirmed the antimicrobial activity of the loaded peptide by measuring the diameter of clearing zone formed around the loaded peptide fraction.
(§2) The present inventors performed ultra-sensitive radical diffusion assay with synthetic peptides prepared in the above Example <2-2>. Particularly, measured antimicrobial activity of each 15Hc, di-15Hc, 18Hc, di-18Hc, halocidin, magainin 1 (Sigma) (control group) and buforin 2 (Sigma) (comparative group) against MRSA and multi drug resistance Pseudomonas aeruginosa (referred as “MDRPA” hereinafter)(Seoul Women's University CCARM2002) according to the concentration of the peptides.

human erythrocytes = assay type: cell-based
Protocol: In order to investigate […] of halocidin, the present inventors performed hemolytic assay. Particularly, mixed 20 μl of peptide diluted to 100, 50, 25, 12.5, 6.25, 3.125 μg/ml and 180 μl of 2.5% (V/V) human erythrocytes in PBS. Used melittin (Sigma) and clavanin AK, a congener in which clavanin A residue was substituted, for comparative group, and 0.01% acetic acid for control group. After reacting the mixture at 37° C. for 30 minutes, added 600 μl of PBS into each tube. Centrifuged the solution at 10,000 g for 3 minutes and separated supernatants. Measured OD at 540 nm and calculated the hemolytic activity (%) according to the below <Mathematical Formula 1>.

[2] = test system: Gram negative bacteria such as Pseudomonas aeruginosa, Salmonella cholerasuis, Salmonella parotyphi A, E. coli K112 and E. coli DH5α; assay: radial diffusion assay, Gram-negative bacteria; assay type: cell-based; details: FIG. 12-14
[3] = test system: Gram-positive bacteria such as Staphylococcus aureus, Micrococcus luteus, Enterococcus faecalis, Bacillus subtilus and MRSA; assay: radial diffusion assay, Gram-positive bacteria; assay type: cell-based; details: FIG. 15-17
Protocol: In order to measure the antimicrobial activity of acid extracts of Halocynthia aurantium obtained in the above Example <1-1>, the present inventors performed ultrasensitive radial diffusion assay. Particularly, analyzed 150 fractions eluted in the above Example <1-1> 5 times each. Took 100 μl from 2 ml of each fraction and concentrated thereof with a vacuum centrifugation (Centra Evaporator, Bioneer, Korea), which was suspended in 5 μl of 0.01% acetic acid solution. Meanwhile, prepared agarose plate including wells 3 mm in diameter by adding methicillin resistance Staphylococcus aureus (referred as “MRSA” hereinafter, Seoul Women's University, Korea CCARM3001) of mid-logarithmic phase to gel comprising sterilized citrate phosphate buffer (9 mM sodium phosphate, 1 mM sodium citrate, pH 7.4), 1% (w/v) type 1 agarose (low electroendosmosis agarose) (A 6013, Sigma) and 3% tryptic soy broth (TSB, Difco, Detroit, Mich., USA). Loaded the above fractions onto the wells of agarose plate containing the above bacteria. Reacted thereof for 3 hours to make the peptides spread into the agarose gel. Added 10 ml of overnutrition medium comprising 6% TSB and 1% agarose gel thereto. Cultured the above plate for overnight until the colonies of the above bacteria were formed. […]

[4] = test system: methicillin resistance Staphylococcus aureus (MRSA); assay: ultrasensitive radial diffusion assay, MRSA; assay type: cell-based; parameters: antimicrobial activity according to pH, MRSA / antimicrobial activity according to NaCl, MRSA: unit not given here; details: for antimicrobial activity to MRSA strain (diameter of clear zone): according to the concentration of the peptides, FIG. 9A, 9C
Protocol: as §1, §2
(§3) Particularly, adjusted the pH of media to 7.4, 6.5 and 5.5 respectively by adding HCl, which was checked with a pH meter, and performed radical diffusion assay with the same method as the above Example 1 to investigate the antimicrobial activity to MRSA and Enterococcus faecalis.
(§4) Particularly, changed the basic condition of media by adding 100 mM NaCl, 150 mM NaCl and 200 mM NaCl respectively, and investigated the antimicrobial activity to MRSA and Enterococcus faecalis by radical diffusion assay.

Enterococcus faecalis = assay: radial diffusion assay, Enterococcus faecalis; assay type: cell-based; parameters: unit not given here
Protocol: as §1, §3, §4

MRSA strain = assay: colony counting assay, MRSA; assay type: cell-based, Staphylococcus aureus; details: peptide 5 μg/ml, 5 and 15 minutes; FIG. 10
Protocol: (§5) In order to investigate antimicrobial activity of halocidin, the present inventors performed colony counting assay. Particularly, adjusted the final concentration of the peptide to 5 μg/ml by mixing the peptide and MRSA strain or MDRPA strain of mid-log phase in sterilized 10 mM sodium phosphate buffer (pH 7.4) containing 0.3 mg/id of TSB powder. Adjusted the final volume of the above mixture to 100 μl, and then let it be pre-reacted in a 37° C. shaking water bath for 5 and 15 minutes each. Collected 20 μl of pre-reacted solution and loaded thereof onto 1.5% bacto-agar plate (Difco). Induced reaction for overnight and counted the number of formed colonies on the above plate, from which measured the antimicrobial activity. Used magainin 1 and buforin 2 for comparative group, and 0.01% acetic acid for control group.

MDRPA strain = assay: colony counting assay, MDRPA; assay type: cell-based, Pseudomonas aeruginosa; details: peptide 5 μg/ml, 5 and 15 minutes; FIG. 10
Protocol: as §5

Substance | antimicrobial activity to MDRPA strain (diameter of clear zone) [1] | hemolytic activity (human erythrocytes) [%] | antimicrobial activity to Gram-negative bacteria [2] | antimicrobial activity to Gram-positive bacteria [3] | antimicrobial activity according to NaCl, MRSA ([4]; NaCl 100 mM) | antimicrobial activity according to NaCl, MRSA ([4]; NaCl 150 mM) | antimicrobial activity according to NaCl, MRSA ([4]; NaCl 200 mM) | antimicrobial activity to MRSA strain (diameter of clear zone) [4] | antimicrobial activity according to pH, MRSA ([4]; pH = 5.5) | antimicrobial activity according to pH, MRSA ([4]; pH = 6.5) | antimicrobial activity according to pH, MRSA ([4]; pH = 7.4) | antimicrobial activity according to NaCl, Enterococcus faecalis (Enterococcus faecalis; NaCl 100 mM) | antimicrobial activity according to NaCl, Enterococcus faecalis (Enterococcus faecalis; NaCl 150 mM) | antimicrobial activity according to NaCl, Enterococcus faecalis (Enterococcus faecalis; NaCl 200 mM) | antimicrobial activity according to pH, Enterococcus faecalis (Enterococcus faecalis; pH = 5.5) | antimicrobial activity according to pH, Enterococcus faecalis (Enterococcus faecalis; pH = 6.5) | antimicrobial activity according to pH, Enterococcus faecalis (Enterococcus faecalis; pH = 7.4) | antimicrobial activity by colony counting, MRSA (MRSA strain) | antimicrobial activity by colony counting, MDRPA (MDRPA strain)
15Hc: 15-amino-acid monomer of halocidin; 18Hc lacking three N-terminal amino acids, SEQ. ID. No 2 (WLNALLHHGLNCAKG; PEPTIDE (1)..(1) 15mer of halocydin; listed as Halocynthia aurantium) [Peptide 15Hc, 15-amino-acid monomer of halocidin; ID; No 2] | higher antimicrobial activity than comparative group | 0 | hardly showed or had minimum antimicrobial activity | low antimicrobial activity |  |  |  |  |  |  |  |  |  |  |  |  |  |  | 
Buforin 2 | proved to have antimicrobial activity |  |  |  | >64 | >64 | >64 | proved to have antimicrobial activity | >64 | >64 | >64 | >64 | >64 | >64 | >64 | >64 | >64 |  | 
KWLNALLHHGLNCAKGVLA (PEPTIDE (1)..(19) 19mer of halocydin; listed as Halocynthia aurantium) [K(18 + 1)Hc, ID; No 9] |  |  |  |  | 16-32 | 16-32 | 32-64 |  | 32-64 | 16-32 | 16-32 | 16-32 | 16-32 | 16-32 | 16-32 | 16-32 | 8-16 |  | 
Magainin 1 (GIGKFLHSAGKFGKAFVGEIMKS; Magainin-1; UniProt P11006 37-59, looked up) [magainin 1 (Sigma), control/comparative antimicrobial peptide] | proved to have antimicrobial activity |  |  |  | >64 | >64 | >64 |  | >64 | >64 | >64 | >64 | >64 | >64 | >64 | >64 | >64 |  | 
Secrofin A |  |  |  |  | >64 | >64 | >64 |  | >64 | >64 | >64 | >64 | >64 | >64 | >64 | >64 | >64 |  | 
WLNALLHHGLNCAKGVLA (PEPTIDE (1)..(1) 18mer of halocydin; listed as Halocynthia aurantium) [Peptide 18Hc, ID; No 1] | higher antimicrobial activity than comparative group | 9 | hardly showed or had minimum antimicrobial activity | low antimicrobial activity |  |  |  | higher antimicrobial activity than buforin 2 |  |  |  |  |  |  |  |  |  | high antimicrobial activity | high antimicrobial activity
